Reference: patent US11857560B2, “Pharmaceutical compositions comprising substituted nucleotides and nucleosides for treating viral infections” (priority 2013, dated 2024)

What was measured:
West Nile Virus = assay: Antiviral activity, West Nile Virus; type: cell-based; settings: read-out: West Nile Virus EC50
Influenza A H3N2 = assay: Antiviral activity, Influenza A H3N2; type: cell-based; settings: Influenza A virus, H3N2; read-out: Influenza A H3N2 EC50
Tacaribe Virus = assay: microbe, parasite or virus in culture; type: cell-based; settings: Mammarenavirus tacaribeense, read-out: Tacaribe Virus EC50
VEEV = assay: microbe, parasite or virus in culture; type: cell-based; settings: Venezuelan equine encephalitis virus, read-out: VEEV EC50
Influenza B = assay: Antiviral activity, Influenza B; type: cell-based; settings: Influenza B virus; read-out: Influenza B EC50
Dengue Virus = assay: Antiviral activity, Dengue Virus; type: cell-based
RSV = assay: Antiviral activity, RSV; type: cell-based; settings: human respiratory syncytial virus
Measles = assay: Antiviral activity, Measles; type: cell-based, measles virus; settings: Measles morbillivirus
SARS = assay: microbe, parasite or virus in culture; settings: Severe acute respiratory syndrome coronavirus, read-out: SARS EC50
[1] = system: Influenza A H5N1 (low path); assay: microbe, parasite or virus in culture; type: cell-based; settings: H5N1, read-out: Influenza A H5N1 (low path) EC50
CHIK Virus = assay: Antiviral activity, CHIK Virus; type: cell-based; settings: Chikungunya virus, read-out: CHIK Virus EC50
RVFV = assay: microbe, parasite or virus in culture; type: cell-based; settings: Rift Valley fever virus, read-out: RVFV EC50
Influenza A H1N1 = assay: Antiviral activity, Influenza A H1N1; type: cell-based; settings: Influenza A virus, H1N1; read-out: Influenza A H1N1 EC50
[2] = Cytotoxicity panel, BxPC3; settings: human, BxPC3 cells
[3] = Cytotoxicity panel, Huh-7; settings: human, Huh-7 cells, Cytotoxicity (CC50 uM) Huh-7, Huh-7
[4] = Cytotoxicity panel, HepG2; settings: human, HepG2 cells
[5] = Toxicity in Huh-7 cells (Dengue assay); settings: human, Huh-7 cells
[6] = Toxicity in Vero cells (Dengue assay); settings: African green monkey
[7] = Cellular toxicity in parallel with HCV replicon assay (XTT); settings: human
Cytotoxicity panel, H9c = type: cell-based; settings: rat, H9c cells
[8] = Cytotoxicity in GT1b replicon cells; type: cell-based
Huh-7 = assay: Cytotoxicity panel, Huh-7; settings: read-out: Cytotoxicity (CC50 uM) Huh-7; Huh-7
Cytotoxicity panel, CEM = settings: human, CEM cells, Cytotoxicity (CC50 uM) CEM
Cytotoxicity panel, A204 = type: cell-based; settings: human, A204 cells
Dengue Type 2 [9] = assay: Anti-Dengue virus cytoprotection assay, Huh-7 cells; settings: Huh-7, read-out: Dengue Type 2 Huh-7 Cells (EC50 uM)
Dengue Type 2 [10] = assay: Anti-Dengue virus cytoprotection assay, Vero cells; settings: read-out: Dengue Type 2 Vero Cells (EC50 uM)

CNc1ccn([C@@H]2O[C@H](CO)C(O)[C@@H]2F)c(=O)n1 (some centres unmarked) [EFVX-01853]
EC50 (West Nile Virus): > 100 µg/mL | EC50 (Influenza A H3N2): > 100 µM | EC50 (Tacaribe Virus): > 100 µg/mL | EC50 (VEEV): > 100 µg/mL | EC50 (Influenza B): > 100 µM | EC50 (Dengue Virus): > 100 µg/mL | EC50 (RSV): > 100 µM | EC50 (Measles): > 100 µM | EC50 (SARS): > 100 µM | EC50 [1]: > 100 µM | EC50 (CHIK Virus): > 100 µg/mL | EC50 (RVFV): > 100 µg/mL | EC50 (Influenza A H1N1): > 100 µM

CN(C)c1ccn([C@@H]2O[C@H](CO)C(O)[C@@H]2F)c(=O)n1 (some centres unmarked) [EFVX-01854]
EC50 (West Nile Virus): > 100 µg/mL | EC50 (Influenza A H3N2): > 100 µM | EC50 (Tacaribe Virus): > 100 µg/mL | EC50 (VEEV): > 100 µg/mL | EC50 (Influenza B): > 100 µM | EC50 (Dengue Virus): > 100 µg/mL | EC50 (RSV): > 100 µM | EC50 (Measles): > 100 µM | EC50 (SARS): > 100 µM | EC50 [1]: > 100 µM | EC50 (CHIK Virus): > 100 µg/mL | EC50 (RVFV): > 100 µg/mL | EC50 (Influenza A H1N1): > 100 µM

Cc1cn([C@@H]2O[C@H](CO)C(O)[C@@H]2F)c(=O)nc1N (some centres unmarked) [EFVX-01855]
EC50 (West Nile Virus): > 100 µg/mL | EC50 (Influenza A H3N2): > 100 µM | EC50 (Tacaribe Virus): > 100 µg/mL | EC50 (VEEV): > 100 µg/mL | EC50 (Influenza B): > 100 µM | EC50 (Dengue Virus): > 100 µg/mL | EC50 (RSV): > 100 µM | EC50 (Measles): > 100 µM | EC50 (SARS): > 100 µM | EC50 [1]: > 100 µM | EC50 (CHIK Virus): > 100 µg/mL | EC50 (RVFV): > 100 µg/mL | EC50 (Influenza A H1N1): > 100 µM

Nc1nc(=O)n([C@@H]2O[C@H](CO)C(O)[C@@H]2F)cc1CO (some centres unmarked) [EFVX-01856]
EC50 (West Nile Virus): > 100 µg/mL | EC50 (Influenza A H3N2): > 100 µM | EC50 (Tacaribe Virus): > 100 µg/mL | EC50 (VEEV): > 100 µg/mL | EC50 (Influenza B): > 100 µM | EC50 (Dengue Virus): > 100 µg/mL | EC50 (RSV): > 100 µM | EC50 (Measles): > 100 µM | EC50 (SARS): > 100 µM | EC50 [1]: > 100 µM | EC50 (CHIK Virus): > 100 µg/mL | EC50 (RVFV): > 100 µg/mL | EC50 (Influenza A H1N1): > 100 µM

C[C@@]1(O)C(O)[C@@H](CO)O[C@H]1n1ccc(=O)[nH]c1=S (some centres unmarked) [ENUC-01850-1]
CC50 [2]: > 100 µM | CC50 [3]: > 100 µM | CC50 [4]: > 400 µM

C[C@@]1(O)C(O)[C@@H](CO)O[C@H]1n1ccc(=O)[nH]c1=S (some centres unmarked) [ENUC-01850]
CC50 [5]: > 100 µM | CC50 [6]: > 100 µM

O=c1[nH]c(=S)ccn1[C@@H]1O[C@H](CO)C(O)[C@@H]1O (some centres unmarked) [ENUC-01893-1]
CC50 at 72 h [7]: 45.7 µM

CC(C)OC(=O)[C@H](C)NP(=O)(OC[C@H]1O[C@@H](n2ccc(=O)[nH]c2=S)[C@](C)(O)C1O)Oc1ccccc1 (some centres unmarked) [ENUC-01911-1]
CC50 (Cytotoxicity panel, H9c): > 200 µM | CC50 [2]: > 300 µM | CC50 [3]: > 400 µM | CC50 [4]: > 400 µM

CC(C)OC(=O)[C@H](C)NP(=O)(OC[C@H]1O[C@@H](n2ccc(=O)[nH]c2=S)[C@](C)(O)C1O)Oc1ccccc1 (some centres unmarked) [ENUC-01911-2]
CC50 [8]: > 10 µM | CC50 (Huh-7): > 400 µM

C[C@@]1(O)C(O)[C@@H](CO)O[C@H]1n1ccc(=S)[nH]c1=O (some centres unmarked) [ENUC-01916-1]
CC50 [4]: > 400 µM

CC(C)OC(=O)[C@H](C)NP(=O)(OC[C@H]1O[C@@H](n2ccc(=S)[nH]c2=O)[C@](C)(O)C1O)Oc1ccccc1 (some centres unmarked) [ENUC-01920-1]
CC50 [3]: > 400 µM | CC50 [4]: > 400 µM

C[C@@]1(F)C(O)[C@@H](CO)O[C@H]1n1ccc(=S)[nH]c1=O (some centres unmarked) [ENUC-01946-1]
CC50 (Cytotoxicity panel, CEM): > 400 µM | CC50 [3]: > 400 µM | CC50 [4]: > 400 µM

CC(C)OC(=O)[C@H](C)NP(=O)(OC[C@H]1O[C@@H](n2ccc(=O)[nH]c2=O)[C@](C)(O)C1O)Oc1ccccc1 (some centres unmarked) [ENUC-01982-1]
CC50 (Cytotoxicity panel, H9c): 31 µM | CC50 [2]: 157 µM | CC50 (Cytotoxicity panel, CEM): 150 µM | CC50 [3]: 65 µM | CC50 [4]: 159 µM | CC50 (Cytotoxicity panel, A204): 124 µM

C[C@@]1(O)C(O)[C@@H](COP(=O)(O)O)O[C@H]1n1ccc(=O)[nH]c1=S (some centres unmarked) [ENUC-01984-1]
CC50 at 72 h [7]: > 100 µM | CC50 (Cytotoxicity panel, CEM): > 400 µM | CC50 [3]: > 400 µM | CC50 [4]: > 400 µM

C[C@H](NP(=O)(O)OC[C@H]1O[C@@H](n2ccc(=O)[nH]c2=S)[C@](C)(O)C1O)C(=O)O (some centres unmarked) [ENUC-01997-1]
CC50 at 72 h [7]: > 100 µM | CC50 (Cytotoxicity panel, CEM): > 400 µM | CC50 [3]: > 400 µM | CC50 [4]: > 400 µM

CC(C)OC(=O)[C@H](C)N[P@@](=O)(OC[C@H]1O[C@@H](n2ccc(=O)[nH]c2=S)[C@](C)(O)C1O)Oc1ccccc1 (some centres unmarked) [ENUC-02024-1]
CC50 (Cytotoxicity panel, CEM): > 400 µM | CC50 [3]: > 400 µM | CC50 [4]: > 400 µM

CC(C)OC(=O)[C@H](C)N[P@@](=O)(OC[C@H]1O[C@@H](n2ccc(=O)[nH]c2=S)[C@](C)(O)C1O)Oc1ccccc1 (some centres unmarked) [ENUC-02024]
CC50 [5]: > 100 µM | CC50 [6]: > 100 µM | EC50 (Dengue Type 2 [9]): 24.9 µM | EC50 (Dengue Type 2 [10]): 56.2 µM

CC(C)OC(=O)[C@H](C)N[P@](=O)(OC[C@H]1O[C@@H](n2ccc(=O)[nH]c2=O)[C@](C)(F)C1O)Oc1ccccc1 (some centres unmarked) [ENUC-02025-1]
CC50 (Cytotoxicity panel, CEM): > 400 µM | CC50 [3]: 279 µM | CC50 [4]: 365 µM

CC(C)OC(=O)[C@H](C)N[P@@](=O)(OC[C@H]1O[C@@H](n2ccc(=O)[nH]c2=O)[C@](C)(F)C1O)Oc1ccccc1 (some centres unmarked) [ENUC-02026-1]
CC50 (Cytotoxicity panel, CEM): > 400 µM | CC50 [3]: > 400 µM | CC50 [4]: > 400 µM

CC(C)OC(=O)[C@H](C)NP(=O)(OC[C@H]1O[C@@H](n2ccc(=O)[nH]c2=[Se])[C@](C)(O)C1O)Oc1ccccc1 (some centres unmarked) [ENUC-02058-1]
CC50 [3]: > 100 µM | CC50 [4]: > 400 µM

C#C[C@]1(COP(=O)(N[C@@H](C)C(=O)OC(C)C)Oc2ccccc2)O[C@@H](n2ccc(=O)[nH]c2=S)[C@@H](O)C1O (some centres unmarked) [ENUC-02069-1]
CC50 (Cytotoxicity panel, CEM): > 400 µM | CC50 [3]: > 400 µM | CC50 [4]: > 400 µM | CC50 [5]: > 100 µM | EC50 (Dengue Type 2 [9]): > 100 µM

CC(C)OC(=O)[C@H](C)NP(=O)(OC[C@H]1O[C@@H](n2ccc(=O)[nH]c2=S)[C@@H](O)C1O)Oc1ccccc1 (some centres unmarked) [ENUC-02071-2]
CC50 at 72 h [7]: > 100 µM

CC(C)OC(=O)[C@H](C)NP(=O)(OC[C@H]1O[C@@H](n2ccc(=O)[nH]c2=S)[C@@H](O)C1O)Oc1ccccc1 (some centres unmarked) [ENUC-02072-1]
CC50 (Cytotoxicity panel, CEM): > 400 µM | CC50 [3]: > 400 µM | CC50 [4]: > 400 µM

CC(C)OC(=O)[C@H](C)NP(=O)(OC[C@H]1O[C@@H](n2ccc(=O)[nH]c2=S)[C@@H](C)C1O)Oc1ccccc1 (some centres unmarked) [ENUC-02078-1]
CC50 (Cytotoxicity panel, CEM): 259 µM | CC50 [3]: > 400 µM | CC50 [4]: > 400 µM | CC50 [5]: > 100 µM | EC50 (Dengue Type 2 [9]): 6.07 µM

CC(C)OC(=O)[C@H](C)NP(=O)(OC[C@@]1(N=[N+]=[N-])O[C@@H](n2ccc(=S)[nH]c2=O)[C@@H](O)C1O)Oc1ccccc1 (some centres unmarked) [ENUC-02083-1]
CC50 at 72 h [7]: > 100 µM | CC50 (Cytotoxicity panel, CEM): 229 µM | CC50 [4]: > 400 µM | CC50 [5]: > 100 µM | EC50 (Dengue Type 2 [9]): 4.82 µM

CC(C)OC(=O)[C@H](C)N[P@](=O)(OC[C@H]1O[C@@H](n2ccc(=O)[nH]c2=O)[C@](C)(F)C1O)Oc1ccccc1 (some centres unmarked) [GS-7977, reference compound]
CC50 [8]: > 2 µM
